The results in this text go back to PubChem BioAssay (NCI).

Among the test systems are HCT-15 colon; SF-539 CNS; EKVX NSCLC; LOX IMVI melanoma; U251 CNS; HS 578T breast; SN12C renal; IGROV1 ovarian; MDA-MB-435; HOP-92 NSCLC; KM12 colon; NCI-H226 lung; SW-620 colon; A549 NSCLC; PC-3 prostate; HOP-62 NSCLC; RPMI-8226 leukemia.
What all share (assay): NCI anticancer screen, dose series, 48 h

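All cell lines were grown in 96-well plates and treated with compound for 48 hours. Definition used: TGI = concentration required for complete inhibition of growth.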

For `COc1ccc(-c2nnc3n(Cc4ccccc4)c4ccccc4n3c2=O)cc1`, the TGI was over 100 µM in the experiment with HCT-15 colon; 34.3 µM in the experiment on SF-539 CNS; over 100 µM in the experiment on EKVX NSCLC; over 100 µM with LOX IMVI melanoma; 55 µM in the experiment with U251 CNS; over 100 µM in the experiment on HS 578T breast. Besides, the TGI with SN12C renal is over 100 µM; with IGROV1 ovarian, 63.7 µM; in the experiment on MDA-MB-435, over 100 µM; with HOP-92 NSCLC it was 95 µM; in the experiment on KM12 colon, over 100 µM; in the experiment with NCI-H226 lung, 97.4 µM. For the same compound, the TGI was over 100 µM in the experiment on SW-620 colon, over 100 µM in the experiment with A549 NSCLC, 32.4 µM in the experiment on PC-3 prostate and 12.2 µM in the experiment on HOP-62 NSCLC.
For `COC(CC1(/C=C/O[Si](C(C)C)(C(C)C)C(C)C)C(=O)N(COCC[Si](C)(C)C)c2ccccc21)OC` (configuration not stated), the TGI in the experiment on HCT-15 colon is over 100 µM; in the experiment on SF-539 CNS it was 58.7 µM; in the experiment on LOX IMVI melanoma, 52.9 µM; in the experiment with U251 CNS, over 100 µM; in the experiment on HS 578T breast it was over 100 µM; with SN12C renal, over 100 µM. For the same compound, the TGI with IGROV1 ovarian is 59.9 µM; with MDA-MB-435, 60.9 µM; in the experiment with HOP-92 NSCLC it was 60 µM; in the experiment on KM12 colon, over 100 µM; in the experiment with RPMI-8226 leukemia, over 100 µM; in the experiment on NCI-H226 lung, over 100 µM. In addition, the TGI was over 100 µM with SW-620 colon, over 100 µM in the experiment on A549 NSCLC, 85.2 µM with PC-3 prostate and over 100 µM with HOP-62 NSCLC.
Consider `COc1ccc(/C=C/C(=N/NC(=O)N/N=C(/C=C/c2ccc(OC)cc2)C(C)(C)CN2CCCCC2)C(C)(C)CN2CCCCC2)cc1`, for which the TGI in the experiment on HCT-15 colon was 7.06 µM; in the experiment on SF-539 CNS, 4.11 µM; in the experiment with EKVX NSCLC it was over 10 µM; with LOX IMVI melanoma, 2.82 µM; with U251 CNS it was 3.31 µM; in the experiment with HS 578T breast it was 4.28 µM. In addition, the TGI worked out at 5.83 µM in the experiment with SN12C renal; 5.77 µM in the experiment with IGROV1 ovarian; 3.08 µM in the experiment with HOP-92 NSCLC; 3.27 µM in the experiment with KM12 colon; 4.23 µM in the experiment on RPMI-8226 leukemia; 3.02 µM in the experiment with NCI-H226 lung. Besides, the TGI with SW-620 colon came to 4.48 µM; in the experiment with A549 NSCLC, 3.49 µM; in the experiment with PC-3 prostate, 6.62 µM; with HOP-62 NSCLC, 3.93 µM.
As to `C[n+]1c2ccccc2n2c3ccccc3c(NCCc3ccccn3)c(C#N)c21`, the TGI in the experiment with HCT-15 colon is 17.4 µM; with SF-539 CNS it was 12.6 µM; with EKVX NSCLC it was 19.5 µM; in the experiment on LOX IMVI melanoma, 3.41 µM; in the experiment with U251 CNS it was 12.7 µM; with HS 578T breast, 12.1 µM. In addition, the TGI was 4 µM in the experiment on MDA-MB-435; over 100 µM in the experiment with HOP-92 NSCLC; 29 µM in the experiment on KM12 colon; 16.6 µM in the experiment with NCI-H226 lung; 3.24 µM in the experiment with SW-620 colon; 50.1 µM in the experiment with A549 NSCLC. Moreover, the values for the TGI in the experiment on PC-3 prostate and in the experiment with HOP-62 NSCLC were 23.9 µM and 11.8 µM, respectively.
On to `Cc1ccc(S(=O)(=O)N2c3ccccc3[C@H]3CCC=C[C@H]32)cc1`, for which the TGI in the experiment with HCT-15 colon is over 69.1 µM; in the experiment with SF-539 CNS, 34 µM; in the experiment on EKVX NSCLC it was over 92.6 µM; in the experiment on LOX IMVI melanoma, 56.5 µM; in the experiment with U251 CNS it was 27.2 µM; in the experiment on HS 578T breast it was 86.3 µM. Besides, the TGI is over 63.1 µM with SN12C renal; over 100 µM in the experiment with IGROV1 ovarian; 35.4 µM in the experiment with HOP-92 NSCLC; 45.7 µM in the experiment with KM12 colon; 43 µM in the experiment with RPMI-8226 leukemia; 47.3 µM in the experiment on NCI-H226 lung. Besides, the TGI in the experiment on SW-620 colon is 47.7 µM; in the experiment on A549 NSCLC, over 100 µM; in the experiment with PC-3 prostate, over 100 µM; in the experiment on HOP-62 NSCLC it was 67.4 µM.
As for `COc1cc(OC)c2c(=O)c(OC)c(-c3ccc4c(c3)OCO4)oc2c1OC`, the TGI with HCT-15 colon, in the experiment with SF-539 CNS, in the experiment with EKVX NSCLC, with LOX IMVI melanoma, in the experiment on U251 CNS and with HS 578T breast was over 100 µM throughout. For the same compound, the TGI in the experiment on SN12C renal is over 100 µM; in the experiment with IGROV1 ovarian, over 100 µM; with MDA-MB-435 it was over 100 µM; with HOP-92 NSCLC it was 90.9 µM; with KM12 colon, over 100 µM; in the experiment on NCI-H226 lung, over 100 µM. Further, the TGI in the experiment on SW-620 colon, in the experiment on A549 NSCLC, with PC-3 prostate and in the experiment on HOP-62 NSCLC was over 100 µM throughout.
Regarding `c1cc2nnc1SCCCSc1ccc(nn1)SCCCSc1ccc(nn1)SCCCS2`, the TGI in the experiment with HCT-15 colon, with SF-539 CNS, in the experiment with LOX IMVI melanoma, in the experiment with U251 CNS, in the experiment with HS 578T breast and in the experiment with SN12C renal was over 100 µM throughout. Moreover, the TGI in the experiment with IGROV1 ovarian, in the experiment on MDA-MB-435, with KM12 colon, with RPMI-8226 leukemia, in the experiment with NCI-H226 lung and with SW-620 colon was over 100 µM in each case. The TGI in the experiment with A549 NSCLC, in the experiment with PC-3 prostate and with HOP-62 NSCLC was over 100 µM in each case.
As for `CCC/C(Cl)=N\OC(=O)Nc1cccc(C(F)(F)F)c1`, the TGI is 18.4 µM in the experiment with HCT-15 colon; 35.1 µM in the experiment on SF-539 CNS; 31.4 µM in the experiment on EKVX NSCLC; 19.7 µM with LOX IMVI melanoma; 34.4 µM with U251 CNS; 70.2 µM with HS 578T breast. Also, the TGI in the experiment with SN12C renal is 29.7 µM; in the experiment with IGROV1 ovarian it was 32.4 µM; with KM12 colon it was 33.3 µM; with RPMI-8226 leukemia, 25.8 µM; with NCI-H226 lung it was 37.8 µM; in the experiment on SW-620 colon, 8.66 µM. The TGI is 36.1 µM with A549 NSCLC, 31.6 µM in the experiment on PC-3 prostate and over 100 µM in the experiment on HOP-62 NSCLC.
For `Cc1[nH]n(C(=N)N)c(=O)c1CCO`, the TGI in the experiment on HCT-15 colon, with SF-539 CNS, in the experiment on LOX IMVI melanoma, in the experiment on U251 CNS, in the experiment with HS 578T breast and in the experiment on SN12C renal was over 100 µM each time. Further, the TGI in the experiment with IGROV1 ovarian, in the experiment on MDA-MB-435, in the experiment on HOP-92 NSCLC, in the experiment on NCI-H226 lung, in the experiment on SW-620 colon and in the experiment with A549 NSCLC was over 100 µM each time. Moreover, the TGI in the experiment on PC-3 prostate and with HOP-62 NSCLC was over 100 µM in each case.
With `Cc1nc2c(cc1C(=O)N/N=C/c1ccc([N+](=O)[O-])cc1)c(=O)n(C)c(=O)n2C`, the TGI with HCT-15 colon is over 100 µM; with EKVX NSCLC it was over 100 µM; in the experiment on U251 CNS it was 57 µM; in the experiment with HS 578T breast it was 86.6 µM; with SN12C renal, over 100 µM; in the experiment with IGROV1 ovarian, over 100 µM. The TGI with MDA-MB-435, in the experiment with KM12 colon, in the experiment on RPMI-8226 leukemia, with NCI-H226 lung, with SW-620 colon and in the experiment with A549 NSCLC was over 100 µM throughout. The TGI is over 100 µM in the experiment with PC-3 prostate and 35.8 µM in the experiment with HOP-62 NSCLC.
As to `Cc1ccc(N=C2S/C(=C3/CCC=C3N3CCOCC3)N(c3ccc(Cl)cc3)C2=Nc2ccc(C)cc2)cc1`, the TGI in the experiment on HCT-15 colon, with EKVX NSCLC, with U251 CNS, in the experiment with HS 578T breast, with SN12C renal and in the experiment with IGROV1 ovarian was over 100 µM in each case. Also, the TGI in the experiment with HOP-92 NSCLC, with KM12 colon, with RPMI-8226 leukemia, with NCI-H226 lung, in the experiment on SW-620 colon and with A549 NSCLC was over 100 µM each time. For the same compound, the TGI with PC-3 prostate and with HOP-62 NSCLC was over 100 µM each time.
`CCOC(=O)C(=[N+]=[N-])C(=O)CN1C(=O)C2CC(C)=C(C)CC2C1O` (configuration not stated): the TGI in the experiment on SF-539 CNS, in the experiment with EKVX NSCLC, with LOX IMVI melanoma, with U251 CNS, in the experiment on HS 578T breast and in the experiment with IGROV1 ovarian was over 100 µM throughout. For the same compound, the TGI with MDA-MB-435, in the experiment on KM12 colon, in the experiment on RPMI-8226 leukemia, in the experiment with NCI-H226 lung, in the experiment with SW-620 colon and with A549 NSCLC was over 100 µM throughout. The TGI with PC-3 prostate and with HOP-62 NSCLC was over 100 µM throughout.
With `Cc1cc(=O)[nH]c2cc(NC(=O)C(CCCN=C(N)N)NC(=O)OCc3ccccc3)ccc12` (configuration not stated), the TGI with HCT-15 colon, in the experiment on SF-539 CNS, with EKVX NSCLC, in the experiment on LOX IMVI melanoma, with U251 CNS and in the experiment on HS 578T breast was over 100 µM each time. In addition, the TGI with SN12C renal, with IGROV1 ovarian, in the experiment on MDA-MB-435, in the experiment on HOP-92 NSCLC, in the experiment with KM12 colon and in the experiment on NCI-H226 lung was over 100 µM throughout. Moreover, the TGI with SW-620 colon, in the experiment on A549 NSCLC, in the experiment with PC-3 prostate and in the experiment on HOP-62 NSCLC was over 100 µM each time.
In the case of `COc1cccc(CCNc2c(C#N)c3nc4ccccc4n3c3ccccc23)c1`, the TGI in the experiment with HCT-15 colon is over 100 µM; in the experiment with SF-539 CNS, over 100 µM; with EKVX NSCLC, over 100 µM; in the experiment with LOX IMVI melanoma, over 100 µM; in the experiment with U251 CNS it was over 100 µM; in the experiment with HS 578T breast it was over 27.2 µM. The TGI in the experiment on SN12C renal was over 70 µM; in the experiment on IGROV1 ovarian, over 100 µM; with HOP-92 NSCLC, over 100 µM; with KM12 colon, over 44.5 µM; with RPMI-8226 leukemia, over 100 µM; in the experiment on NCI-H226 lung, over 100 µM. The TGI in the experiment on SW-620 colon, with A549 NSCLC, in the experiment on PC-3 prostate and in the experiment with HOP-62 NSCLC was over 100 µM in each case.
